We go through three compounds from patent US8609678B2, “Reverse amide compounds as protein deacetylase inhibitors and methods of use thereof” (Acetylon Pharmaceuticals, priority 2010, dated 2013).

Molecules are shown by their SMILES. Like-named read-outs stand apart in the source and are kept apart here. A value given as a limit tells only on which side of the number the result lay.

Test [1] concerns refractory relapsed MM. The settings on record: 202 patients with refractory relapsed MM; cited from earlier work.
Test [2] concerns the target HDAC3 (Homo sapiens (Human), UniProt O15379). In words: HDAC enzyme assay, HDAC3. Format: biochemical.
Protocol: (§1) Compounds for testing were diluted in DMSO to 50 fold the final concentration and a ten point three fold dilution series was made. The compounds were diluted in assay buffer (50 mM HEPES, pH 7.4, 100 mM KCl, 0.001% Tween-20, 0.05% BSA, 20 μM TCEP) to 6 fold their final concentration. […] The tripeptide substrate and trypsin at 0.05 μM final concentration were diluted in assay buffer at 6 fold their final concentration. The final enzyme concentrations used in these assays were 3.3 ng/ml (HDAC1), 0.2 ng/ml (HDAC2), 0.08 ng/ml (HDAC3) and 2 ng/ml (HDAC6). […] Five μl compounds and 20 μl of enzyme were added to wells of a black, opaque 384 well plate in duplicate. Enzyme and compound were incubated together at room temperature for 10 minutes. […] The development of fluorescence was monitored for 60 min and the linear rate of the reaction was calculated. The IC50 was determined using Graph Pad Prism by a four parameter curve fit.
Test [3] addresses HDAC6 (Homo sapiens (Human), UniProt Q9UBN7). As to the kind of experiment: HDAC enzyme assay, HDAC6.
Protocol: as §1

Sequence of HDAC6 (Q9UBN7 whole entry): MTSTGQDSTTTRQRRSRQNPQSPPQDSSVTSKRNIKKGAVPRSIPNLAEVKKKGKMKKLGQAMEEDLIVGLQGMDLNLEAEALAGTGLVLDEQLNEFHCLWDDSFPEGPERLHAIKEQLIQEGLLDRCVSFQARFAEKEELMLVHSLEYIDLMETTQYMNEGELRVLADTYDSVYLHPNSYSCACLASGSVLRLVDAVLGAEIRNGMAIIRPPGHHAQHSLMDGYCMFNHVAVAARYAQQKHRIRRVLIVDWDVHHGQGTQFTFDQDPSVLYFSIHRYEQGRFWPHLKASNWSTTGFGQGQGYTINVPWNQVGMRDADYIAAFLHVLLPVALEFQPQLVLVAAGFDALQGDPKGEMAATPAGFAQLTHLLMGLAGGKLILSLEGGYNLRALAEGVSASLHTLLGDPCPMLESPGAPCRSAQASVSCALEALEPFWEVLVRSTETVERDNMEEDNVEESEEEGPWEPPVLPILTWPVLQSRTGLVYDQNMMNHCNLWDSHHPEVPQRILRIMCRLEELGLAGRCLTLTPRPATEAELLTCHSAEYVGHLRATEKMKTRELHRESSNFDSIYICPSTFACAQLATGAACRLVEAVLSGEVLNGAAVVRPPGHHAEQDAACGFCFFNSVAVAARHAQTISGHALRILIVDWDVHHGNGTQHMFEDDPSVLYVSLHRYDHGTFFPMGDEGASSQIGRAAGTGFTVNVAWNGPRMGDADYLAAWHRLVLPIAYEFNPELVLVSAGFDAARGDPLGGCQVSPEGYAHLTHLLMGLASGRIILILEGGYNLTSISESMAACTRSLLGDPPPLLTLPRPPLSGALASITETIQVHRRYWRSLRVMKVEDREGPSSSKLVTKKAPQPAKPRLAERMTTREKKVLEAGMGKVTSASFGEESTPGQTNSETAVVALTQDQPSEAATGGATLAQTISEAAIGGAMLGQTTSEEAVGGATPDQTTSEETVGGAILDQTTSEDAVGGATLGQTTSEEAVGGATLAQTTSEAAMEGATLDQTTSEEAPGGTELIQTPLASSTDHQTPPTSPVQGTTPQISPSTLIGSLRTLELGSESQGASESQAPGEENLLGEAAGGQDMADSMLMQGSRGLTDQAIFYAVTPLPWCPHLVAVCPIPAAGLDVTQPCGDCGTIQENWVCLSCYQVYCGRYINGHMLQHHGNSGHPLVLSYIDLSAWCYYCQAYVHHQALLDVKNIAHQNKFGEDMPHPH
Sequence of HDAC3 (O15379 whole entry): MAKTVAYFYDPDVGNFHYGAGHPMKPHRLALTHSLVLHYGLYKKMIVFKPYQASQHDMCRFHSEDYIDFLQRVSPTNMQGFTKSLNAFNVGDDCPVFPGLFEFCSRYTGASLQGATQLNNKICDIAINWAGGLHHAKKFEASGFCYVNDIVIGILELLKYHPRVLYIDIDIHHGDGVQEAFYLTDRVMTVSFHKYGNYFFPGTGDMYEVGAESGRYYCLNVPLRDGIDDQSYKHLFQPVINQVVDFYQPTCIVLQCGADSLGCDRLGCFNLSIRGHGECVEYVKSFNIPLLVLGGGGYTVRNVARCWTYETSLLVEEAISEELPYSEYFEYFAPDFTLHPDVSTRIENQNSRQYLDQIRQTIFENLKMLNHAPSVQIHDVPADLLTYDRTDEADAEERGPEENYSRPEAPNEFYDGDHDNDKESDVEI
Sequence of HDAC3 (Q9Y618 395-489 partner): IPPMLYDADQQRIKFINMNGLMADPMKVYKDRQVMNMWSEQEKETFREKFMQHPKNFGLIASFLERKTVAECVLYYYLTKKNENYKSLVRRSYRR

As for `CC(C)C[C@H](NC(=O)[C@H](Cc1ccccc1)NC(=O)c1cnccn1)B(O)O` [bortezomib], in test [1], the “complete and near complete responses” value was 10%; the “patients did not respond” value is 65%; the responses is 35%.
Take `COC(c1ccccc1)(c1ccccc1)c1ccc(C(=O)NCCCCCCC(=O)NO)cc1` [N-(7-(hydroxyamino)-7-oxoheptyl)-4-(methoxydiphenylmethyl)benzamide]: the IC50 worked out at 243 nM in test [2] (0.08 ng/ml enzyme, 17 μM tripeptide substrate, read-out: IC50(nM) HDAC3) and 0.007 µM in test [3].
For `NC(=O)CCCCCCNC(=O)c1cnc(N(c2ccccc2)c2ccccc2)nc1` [N-(7-amino-7-oxoheptyl)-2-(diphenylamino)pyrimidine-5-carboxamide], the IC50 in test [2] (μM, read-out: IC50 HDAC3) is more than 50000 nM; in test [3] (read-out: IC50 HDAC6, μM), more than 50 µM.

Broadly, the IC50 is the concentration that inhibits the measured activity by half.
